The values below come from patent publication EP0642343B1, “Acridine carboxamides for the treatment of cancer” (XENOVA LIMITED, priority 1992, dated 1993).

SMILES strings stand for the structures. Like-named read-outs stand apart in the source and are kept apart here.

Series [1] in a line: Pharmacokinetic and tissue distribution studies (tritium label, HPLC). In kind it is in vivo. Conditions: for tissue concentration: 1 h after intraperitoneal 400 µmol/kg, HPLC; for AUC: ip, 400 umol/kg, intraperitoneal 400 µmol/kg. An excerpt:
We believe that administration of DACA at the new divided dose-high constituent dose frequency regime mentioned above will be helpful in combating brain tumours.

Series [2] deals with other human leukaemia cell lines. Kind of series: Growth inhibition of leukaemia lines, continuous exposure, MTT staining. In kind it is cell-based. Conditions: range over other human leukaemia cell lines. As for the experimental part: Tumour cell lines were cultured in 96-well plates. […] Primary cultures were incubated at 37°C in sealed perspex boxes containing a humidified atmosphere of 5% CO2 and 5% O2 in nitrogen for 7 days. 5-Methyl-[^3H]-thymidine (20 Ci.mmol^-1; 0.04 µCi per well), thymidine and 5-fluorodeoxyuridine (each at final concentrations of 0.5 µM) were added in medium to cultures (20 µl per well) 24 h before terminating the cultures.
1989, 81:1088-1092, where growth, as indicated by staining or thymidine incorporation, corresponded to 50% of that of the control cultures.
The effect of DACA on the growth of cultured cells was assessed by continuous drug exposure. […] These values were similar to those of other human leukaemia cell lines, which ranged from 290 to 760 nM (CEM-CCRF, 410 nM; MOLT-4, 290 nM; Daudi, 400 nM; Raji, 370 nM, U937, 590 nM; HL-60, 620 nM; K-562, 760 nM). Four multidrug-resistant cell lines, developed from JL and JB1 by in vitro exposure to increasing concentrations of doxorubicin (LD and B1D) or amsacrine (LA and B1A) (Finlay G.J., et al., J. Natl. Cancer Inst. 1990, 82, 662-667, Snow K., et al., Br. J. Cancer 1991, 63, 17-28) were tested.

In general, AUC refers to concentration integrated over time. Broadly, the IC50 is the concentration needed to halve the response being measured. Read a low IC50 as higher potency.

`CN(C)CCNC(=O)c1cccc2cc3ccccc3nc12` [DACA, N-[2-(dimethylamino)ethyl]acridine-4-carboxamide]: the tissue concentration is on record as 45 µmol/kg in series [1] (brain), 57 µmol/kg in series [1] (heart), 139 µmol/kg in series [1] (kidney) and 185 µmol/kg in series [1] (liver). Moreover, the AUC in series [1] (brain, read-out: AUC) was 218 µM·h; in series [1] (heart, read-out: AUC), 147 µM·h; in series [1] (kidney, read-out: AUC), 492 µM·h; in series [1] (liver, read-out: AUC), 547 µM·h; in series [1] (plasma, read-out: plasma AUC) it was 26.6 µM·h. For the same compound, the “elimination t1/2” value in series [1] (tritium-labelled DACA, tissues including brain) fell in the range of 37 to 176 h. The same compound came in with an IC50 in series [2] of 290 to 760 nM.
